Patent publication US20110064794A1, “Drug Delivery System, its Preparation Process and Use” (priority 2008, published 2011)

How the values were obtained:
[1] = tested on: human laryngocarcinoma epithelial cells (Hep-2); experiment: MTT inhibition of tumor cell growth, Hep-2; assay type: cell-based; details: 0.1, 1, 10 and 100 μM in DMSO, different culture times (FIG. 7)
Text: Microplate Reader (Switzerland Sunrise); 3-(4,5-dimethylthiazol-2-yl)-2, 5-diphenyl-2H-tetrazolium bromide (MTT) (America Fluka); DMSO (Sigma); RPMI 1640 media (GIBCO); fetal bovine serum (FBS) (Tian Jin TBD Center for Biotechnology Development).
Studies were respectively carried out on the inhibition effect of cucurbitacin B HSA nanoparticle on the growth of tumor cells in vitro in human laryngocarcinoma epithelial cells (Hep-2), human hepatoma carcinoma cell (HepG-2), human adenocarcinoma of lung cell (A549), and inhibition effect of the same dosage of cucurbitacin B emulsion and liposomes in these cells were compared.
Cells were cultured in RPMI 1640 media containing 10% FBS in an incubator at 37° C. and 5% CO2, and passaged every 3 to 4 days. […] OD (optical density) value of each well was determined in the microplate reader (at 570 nm wavelength). Cell inhibition rate was calculated according to OD value, and the following formula was used: cell inhibition rate (IR)=[(mean OD value of control group−mean OD value of blank group)−(mean OD value of test groups−mean OD value of blank group)]/(mean OD value of control group−mean OD value of blank group). […]
Inhibition effects of various formulations of CuB (cucurbitacin B/HSA solution, CuB HSA nanoparticle, CuB liposome and CuB emulsion) on Hep-2, A549 and HepG-2 tumor cells were detected.

[2] = tested on: Transplanted liver cancer (H22); experiment: anti-tumor test in transplanted liver cancer (H22) model; assay type: in vivo, nude mice; details: 20 mg/kg
Method: (§1) Transplanted liver cancer (H22) model in nude mice were established for antitumor drug tests. The nude mice were randomly divided into six groups (10 animals for each group): blank control group, cyclophosphamide positive control group (CTX 20 mg·kg^−1), treatment groups (high, medium and low dosage, 0.20 mg·kg^−1, 0.10 mg·kg^−1 and 0.05 mg·kg^−1) and solution group (non-nanoparticle formulation). The negative control group received injection of physiological saline. After inoculation for four days and with the tumors grown to a certain volume, the mice were treated on the 5th, 7th, 9th, 11th and 13th day. On the 14th day, the mice were sacrificed by cervical dislocation and weighed, dissected to peel off the tumor tissue which was weighed by an electronic balance. The tumor-inhibition rates were calculated by using the following formula: […]
(§2) all the data were expressed as mean±standard deviation (i.e. x±SD); the mice were bled at caudal vein for routine white blood cell count.

white blood cell = experiment: routine white blood cell count in H22 model mice; assay type: in vivo, nude mice; details: 20 mg·kg^−1
Method: as §1, §2

Row | Compound | inhibition effect on the growth of Hep-2 cells [1] | Body weight (g) begin [2] | Body weight (g) end [2] | Number of mice (begin/end) [2] | Tumor-inhibition rate (%) ([2]; day 14) | Weight of tumor (g) (x ± SD) ([2]; day 14) | leukocyte number (white blood cell)
1 | CC(=O)OC(C)(C)/C=C/C(=O)[C@](C)(O)[C@H]1[C@H](O)C[C@@]2(C)[C@@H]3CC=C4[C@H](C[C@H](O)C(=O)C4(C)C)[C@]3(C)C(=O)C[C@]12C [cucurbitacin B] | enhanced along with the extended time and increased dose |  |  |  |  |  | 
2 | O=P1(N(CCCl)CCCl)NCCCO1 (stereo not shown) [CTX, cyclophosphamide] |  | 19.77 g | 21.08 g | 10/9 | 55.3% | 1.26 ± 0.63 g | 3.11e+09 L⁻¹
